Assay results as given in patent EP0679394B1, “Menatetronome derivative as antiarteriosclerotic agent” (Eisai Co., Ltd., priority 1994, dated 1995).

How the values were obtained:
[1] = system: arteriosclerotic rats; test: Effect of vitamin K2 on arteriosclerotic rats (vitamin D2-induced calcification); format: in vivo
Description: Then vitamin D2, vitamin D2 with vitamin K2 (in a low dose), and vitamin D2 with vitamin K2 (in a high dose) were given respectively to the groups A, B and C.
After feeding for five weeks, the urine of each group was sampled for a period of 20 hours and the urinary calcium, phosphorus and creatinine levels were measured.
After feeding for six weeks, the animals of each group were bled to death and the blood, aorta (from the aortic arch to the thoracic aorta) and kidneys were sampled.
The serum was separated from the blood and the serum calcium and phosphorus levels were measured.
The aorta and kidneys were defatted, dehydrated and incinerated and the calcium and phosphorus contents therein were determined.
The calcium concentrations were determined by atomic absorption spectrophotometry. The inorganic phosphorus concentrations were determined by Goldenberg's method. The creatinine concentrations were determined by the enzymatic method.
(The data of each group were compared with those of the control group according to the t-test method.)

[2] = Acute (single administration) toxicity test in rats; format: in vivo, SD rats; conditions: in vivo, Rat M, medium 5% gum arabic
Description: (§1) Next, the results of the acute toxicity test of 2-methyl-3-[(2E,6E,10E)-3,7,11,15-tetramethyl-2,6,10,14-hexadecatetraenyl]naphthoquinone (generic name: vitamin K2), which is a typical example of the compound of the present invention, will be given. An acute toxicity test was conducted as follows:
(§2) A single administration toxicity test was effected by orally, subcutaneously and intraperitoneally administering the test compound (medium: 5% gum arabic) to SD rats, ICR mice and beagles aged 7 to 8 weeks (5 females and 5 males in each case).

[3] = system: SD rats; test: as above; format: in vivo; conditions: Rat F, medium 5% gum arabic
Description: as §1, §2

[4] = Acute (single administration) toxicity test in beagles; format: in vivo; conditions: dog, in vivo, Beagle M, medium 5% gum arabic
Description: as §1, §2

[5] = system: beagles; test: as above; format: in vivo; conditions: Beagle F, medium 5% gum arabic
Description: as §1, §2

[6] = system: ICR mice; test: Acute (single administration) toxicity test in mice; format: in vivo; conditions: Mouse F, medium 5% gum arabic
Description: as §1, §2

[7] = as above; format: in vivo, ICR mice; conditions: in vivo, Mouse M, medium 5% gum arabic
Description: as §1, §2

[8] = Group A: vitamin D2 2.5 × 10^5 IU/kg/day p.o. alone, 6 weeks, n=8

For `C=C1CC[C@H](O)C/C1=C/C=C1\CCC[C@]2(C)[C@@H]([C@H](C)/C=C/[C@H](C)C(C)C)CC[C@@H]12` [vitamin D2], the “Aorta Ca” value [1, 8] was 11.6 ± 11.1 mg/dL, the “Aorta P” value [1, 8] was 10.9 ± 7.1 mg/dL and the “Kidney Ca” value [1, 8] was 7.6 ± 7.8 mg/dL. The “Kidney P” value [1, 8] was 7.2 ± 2.0 mg/dL and the “calcium and phosphorus contents in the aorta” value ([1]; group A, vitamin D2 2.5 × 10^5 IU/kg/day p.o. alone, 6 weeks) was “significant increases”.

Compound `CC(C)=CCC/C(C)=C/CC/C(C)=C/CC/C(C)=C/CC1=C(C)C(=O)c2ccccc2C1=O` [vitamin K2, 2-Methyl-3-[(2E,6E,10E)-3,7,11,15-tetramethyl-2,6,10,14-hexadecatetraenyl]naphthoquinone] has an LD50 ([2]; ip, intraperitoneal) of over 5000 mg/kg, an LD50 ([2]; oral) of over 5000 mg/kg and an LD50 ([2]; sc, subcutaneous) of over 5000 mg/kg. The LD50 ([3]; intraperitoneal) was over 5000 mg/kg, the LD50 ([3]; oral) was over 5000 mg/kg and the LD50 ([3]; subcutaneous) was over 5000 mg/kg. It also gave an LD50 ([4]; ip, intraperitoneal) of over 3000 mg/kg, an LD50 ([4]; oral) of over 3000 mg/kg and an LD50 ([4]; sc, subcutaneous) of over 3000 mg/kg. The LD50 ([5]; intraperitoneal) was over 3000 mg/kg, the LD50 ([5]; oral) was over 3000 mg/kg and the LD50 ([5]; subcutaneous) was over 3000 mg/kg. The LD50 ([6]; intraperitoneal) was over 5000 mg/kg, the LD50 ([6]; oral) was over 5000 mg/kg and the LD50 ([6]; subcutaneous) was over 5000 mg/kg. The LD50 ([7]; ip, intraperitoneal) was over 5000 mg/kg, the LD50 ([7]; oral) was over 5000 mg/kg and the LD50 ([7]; sc, subcutaneous) was over 5000 mg/kg. The “Aorta Ca” value ([1]; po, 10 mg/kg, 1008 h) was 5.0 ± 3.8 mg/dL, the “Aorta P” value ([1]; po, 10 mg/kg, 1008 h) was 12.6 ± 12.2 mg/dL and the “Kidney Ca” value ([1]; po, 10 mg/kg, 1008 h) was 3.4 ± 3.8 mg/dL. For the same compound, the “Kidney P” value ([1]; po, 10 mg/kg, 1008 h) was 6.3 ± 2.7 mg/dL, the “Aorta Ca” value ([1]; po, 100 mg/kg, 1008 h) was 2.6 ± 3.2 mg/dL and the “Aorta P” value ([1]; po, 100 mg/kg, 1008 h) was 3.7 ± 4.3 mg/dL. For the same compound, the “Kidney Ca” value ([1]; po, 100 mg/kg, 1008 h) was 1.6 ± 1.4 mg/dL and the “Kidney P” value ([1]; po, 100 mg/kg, 1008 h) was 4.5 ± 1.4 mg/dL.
